Measured values from ChEMBL document CHEMBL1152291, “Structure-based design, synthesis, evaluation, and crystallographic studies of conformationally constrained Smac mimetics as inhibitors of the X-linked inhibitor of apoptosis protein (XIAP)” (J Med Chem, 2008).
pIC50, pKi: −log10 of the molar value.

Experiments:
[1] = target: E3 ubiquitin-protein ligase XIAP (Homo sapiens, UniProt P98170)
Description: Binding affinity to N-terminal 6xHis-tagged human cloned XIAP BIR3 domain expressed in Escherichia coli BL21 (DE3) by fluorescence polarization-based competitive binding assay

[2] = test system: MDA-MB-231; test: Induction of apoptosis in human MDA-MB-231 cells assessed as early apoptotic cells at 30 nM after 48 hrs using annexin V-propidium iodide staining by flow cytometry; format: functional
[3] = test system: MDA-MB-231; test: Induction of apoptosis in human MDA-MB-231 cells assessed as early apoptotic cells at 100 nM after 48 hrs using annexin V-propidium iodide staining by flow cytometry; format: functional
[4] = test system: MDA-MB-231; test: Induction of apoptosis in human MDA-MB-231 cells assessed as late apoptotic cells at 1 uM after 48 hrs using annexin V-propidium iodide staining by flow cytometry; format: functional
[5] = test system: MDA-MB-231; test: Induction of apoptosis in human MDA-MB-231 cells assessed as late apoptotic cells at 30 nM after 48 hrs using annexin V-propidium iodide staining by flow cytometry; format: functional
[6] = test system: MDA-MB-231; test: Induction of apoptosis in human MDA-MB-231 cells assessed as late apoptotic cells at 100 nM after 48 hrs using annexin V-propidium iodide staining by flow cytometry; format: functional
[7] = test system: SK-OV-3; test: Growth inhibition of human SKOV3 cells after 4 days by WST8 assay; format: functional, cell-based; settings: SK-OV-3, 96 h
[8] = test system: MDA-MB-231; test: Induction of apoptosis in human MDA-MB-231 cells assessed as early apoptotic cells at 1 uM after 48 hrs using annexin V-propidium iodide staining by flow cytometry; format: functional
[9] = test system: MDA-MB-231; test: cells; settings: Homo sapiens, MDA-MB-231, 96 h
Description: Growth inhibition of human MDA-MB-231 cells after 4 days by WST-8 assay

Sequence of E3 ubiquitin-protein ligase XIAP (P98170 whole entry): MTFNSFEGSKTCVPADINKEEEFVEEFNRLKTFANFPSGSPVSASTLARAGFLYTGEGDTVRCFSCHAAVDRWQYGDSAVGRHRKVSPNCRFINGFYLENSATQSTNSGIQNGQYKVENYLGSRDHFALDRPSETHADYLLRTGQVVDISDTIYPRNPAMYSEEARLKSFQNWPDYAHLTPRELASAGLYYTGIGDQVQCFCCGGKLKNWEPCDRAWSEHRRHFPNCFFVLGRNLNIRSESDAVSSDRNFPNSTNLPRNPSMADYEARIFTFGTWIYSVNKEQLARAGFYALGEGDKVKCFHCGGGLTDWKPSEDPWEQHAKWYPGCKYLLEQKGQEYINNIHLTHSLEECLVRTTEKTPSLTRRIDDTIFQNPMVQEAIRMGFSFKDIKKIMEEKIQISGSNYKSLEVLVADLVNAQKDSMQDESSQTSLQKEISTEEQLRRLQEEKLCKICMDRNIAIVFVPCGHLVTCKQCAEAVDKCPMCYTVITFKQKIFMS

Compound: CCC[C@H](N)C(=O)N[C@H]1CC[C@H]2CC[C@@H](C(=O)NCc3ccccc3)N2C1
- pKi [1]: < 4.00

Compound: CC[C@@H](C(=O)N[C@H]1CCCC[C@H]2CC[C@@H](C(=O)NC(c3ccccc3)c3ccccc3)N2C1=O)N1CCOCC1
- pKi [1]: 4.48

Compound: C[C@H](N)C(=O)N[C@H]1CCCC[C@H]2CC[C@@H](C(=O)NCc3ccccc3)N2C1=O
- pKi [1]: 7.00

Compound: CN[C@@H](C)C(=O)N[C@H]1CCCC[C@H]2CC[C@@H](C(=O)NC(c3ccccc3)c3ccccc3)N2C1=O
- Activity [2]: 13%
- Activity [3]: 29%
- Activity [4]: 8%
- Activity [5]: 2%
- Activity [6]: 10%
- pIC50 [7]: 6.05
- Activity [8]: 39%

Compound: C[C@H](O)C(=O)N[C@H]1CCCC[C@H]2CC[C@@H](C(=O)NC(c3ccccc3)c3ccccc3)N2C1=O
- pIC50 [9]: 5.15
- pKi [1]: 4.89
- pIC50 [7]: < 5.00

Compound: C[C@H](N)C(=O)N[C@H]1CCC[C@H]2CC[C@@H](C(=O)NC(c3ccccc3)c3ccccc3)N2C1=O
- pKi [1]: 7.22

Compound: CC[C@H](N)C(=O)N[C@H]1CCCC[C@H]2CC[C@@H](C(=O)NC(c3ccccc3)c3ccccc3)N2C1=O
- pIC50 [9]: 5.10
- pKi [1]: 7.41
- pIC50 [7]: < 5.00

Compound: CC[C@H](NC)C(=O)N[C@H]1CCCC[C@H]2CC[C@@H](C(=O)NC(c3ccccc3)c3ccccc3)N2C1=O
- Activity [2]: 13%
- Activity [3]: 20%
- Activity [4]: 8%
- pIC50 [9]: 6.39
- Activity [5]: 3%
- Activity [6]: 3%
- pIC50 [7]: 6.00
- Activity [8]: 29%

Compound: CC[C@H](O)C(=O)N[C@H]1CCC[C@H]2CC[C@@H](C(=O)NC(c3ccccc3)c3ccccc3)N2C1=O
- pKi [1]: 4.54

Compound: CC[C@H](N)C(=O)N[C@H]1CCCC[C@H]2CC[C@@H](C(=O)N[C@@H](c3ccccc3)c3ccc4ccccc4c3)N2C1=O
- pKi [1]: 7.33

Compound: CC[C@H](N)C(=O)N[C@H]1CCCC[C@H]2CC[C@@H](C(=O)N[C@H](c3ccccc3)c3ccc4ccccc4c3)N2C1=O
- pKi [1]: 6.12
